Where two headings read alike, the source gives them in different places.
How the values were obtained:
SR = assay: NCI in-vitro testing, SR (Leukemia); type: cell-based
H460 cells = conditions: Table 1, value is the negative log10 of mol/L
K-562 = assay: NCI in-vitro testing, K-562 (Leukemia)
MOLT-4 = assay: NCI in-vitro testing, MOLT-4 (Leukemia)
SK-MEL-5 = assay: NCI in-vitro testing, SK-MEL-5 (Melanoma)
SW-620 = assay: NCI in-vitro testing, SW-620 (Colon Cancer)
CAKI-1 = assay: NCI in-vitro testing, CAKI-1 (Renal Cancer); conditions: for Percent Growth: CAK1-1
HCT-116 = assay: NCI in-vitro testing, HCT-116 (Colon Cancer)
BT-549 = assay: NCI in-vitro testing, BT-549 (Breast Cancer)
HCC-2998 = assay: NCI in-vitro testing, HCC-2998 (Colon Cancer)
HS 578T = assay: NCI in-vitro testing, HS 578T (Breast Cancer)
MDA-MB-435 = assay: NCI in-vitro testing, MDA-MB-435 (Breast Cancer)
HOP-62 = assay: NCI in-vitro testing, HOP-62 (Non-Small Cell Lung Cancer)
NCI-H23 = assay: NCI in-vitro testing, NCI-H23 (Non-Small Cell Lung Cancer)
NCI-H226 = assay: NCI in-vitro testing, NCI-H226 (Non-Small Cell Lung Cancer)

With `O=Cc1cn(Cc2cccc(Cl)c2)c2ccccc12` [Oncrasin K027, 1-(3-chlorobenzyl)-1H-indole-3-carbaldehyde] the TGI (SR) was 4.26E−8 Molar, the GI50 (SR; Homo sapiens) was under 10 nM and the “Percent Growth” value (SR; Log10 Concentration −4.0 Molar) was −71%. For the same compound, the “Percent Growth” value (SR; Log10 Concentration −5.0 Molar) was −18%, the “Percent Growth” value (SR; Log10 Concentration −6.0 Molar) was −71% and the “Percent Growth” value (SR; Log10 Concentration −7.0 Molar) was −25%. For the same compound, the “Percent Growth” value (SR; Log10 Concentration −8.0 Molar) was 43%, the “IC50 in H460 cells” value (H460 cells; listed as K27) was 7 and the “IC50 in H460 cells” value (H460 cells) was 8.43. For the same compound, the GI50 (K-562; Homo sapiens, K562) was 19.2 nM, the CC50 (K-562; Homo sapiens, K562, read-out: LC50) was 54.5 µM and the TGI (K-562; K-562) was 1.26E−5 Molar. For the same compound, the “Percent Growth” value (K-562; K-562, Log10 Concentration −4.0 Molar) was −71%, the “Percent Growth” value (K-562; K-562, Log10 Concentration −5.0 Molar) was 8% and the “Percent Growth” value (K-562; K-562, Log10 Concentration −6.0 Molar) was 87%. For the same compound, the “Percent Growth” value (K-562; K-562, Log10 Concentration −7.0 Molar) was 100%, the “Percent Growth” value (K-562; K-562, Log10 Concentration −8.0 Molar) was 114% and the CC50 (MOLT-4; Homo sapiens, MOLT-4, read-out: LC50) was 82.6 µM. For the same compound, the TGI (MOLT-4; MOLT-4) was 3.82E−5 Molar, the “Percent Growth” value (MOLT-4; MOLT-4, Log10 Concentration −4.0 Molar) was −62% and the “Percent Growth” value (MOLT-4; MOLT-4, Log10 Concentration −5.0 Molar) was 87%. For the same compound, the “Percent Growth” value (MOLT-4; MOLT-4, Log10 Concentration −6.0 Molar) was 109%, the “Percent Growth” value (MOLT-4; MOLT-4, Log10 Concentration −7.0 Molar) was 102% and the “Percent Growth” value (MOLT-4; MOLT-4, Log10 Concentration −8.0 Molar) was 114%. For the same compound, the GI50 (SK-MEL-5; Homo sapiens, SK-MEL-5) was 4.97 µM, the CC50 (SK-MEL-5; Homo sapiens, SK-MEL-5, read-out: LC50) was 45.5 µM and the TGI (SK-MEL-5; SK-MEL-5) was 1.95E−5 Molar. For the same compound, the “Percent Growth” value (SK-MEL-5; SK-MEL-5, Log10 Concentration −4.0 Molar) was −97%, the “Percent Growth” value (SK-MEL-5; SK-MEL-5, Log10 Concentration −5.0 Molar) was 40% and the “Percent Growth” value (SK-MEL-5; SK-MEL-5, Log10 Concentration −6.0 Molar) was 74%. For the same compound, the “Percent Growth” value (SK-MEL-5; SK-MEL-5, Log10 Concentration −7.0 Molar) was 92%, the “Percent Growth” value (SK-MEL-5; SK-MEL-5, Log10 Concentration −8.0 Molar) was 95% and the GI50 (SW-620; Homo sapiens, SW-620) was 571 nM. For the same compound, the CC50 (SW-620; Homo sapiens, SW-620, read-out: LC50) was over 100 µM, the TGI (SW-620; SW-620) was 1.80E−5 Molar and the “Percent Growth” value (SW-620; SW-620, Log10 Concentration −4.0 Molar) was −46%. For the same compound, the “Percent Growth” value (SW-620; SW-620, Log10 Concentration −5.0 Molar) was 16%, the “Percent Growth” value (SW-620; SW-620, Log10 Concentration −6.0 Molar) was 39% and the “Percent Growth” value (SW-620; SW-620, Log10 Concentration −7.0 Molar) was 83%. For the same compound, the “Percent Growth” value (SW-620; SW-620, Log10 Concentration −8.0 Molar) was 84%, the “Percent Growth” value (CAKI-1; Log10 Concentration −4.0 Molar) was 1% and the “Percent Growth” value (CAKI-1; Log10 Concentration −5.0 Molar) was −47%. For the same compound, the “Percent Growth” value (CAKI-1; Log10 Concentration −6.0 Molar) was −21%, the “Percent Growth” value (CAKI-1; Log10 Concentration −7.0 Molar) was −3% and the “Percent Growth” value (CAKI-1; Log10 Concentration −8.0 Molar) was 1%. The GI50 (CAKI-1; Homo sapiens, CAKI-1) was under 10 nM, the CC50 (CAKI-1; Homo sapiens, CAKI-1, read-out: LC50) was over 100 µM and the TGI (HCT-116; HCT-116) was 1.06E−5 Molar. The “Percent Growth” value (HCT-116; HCT-116, Log10 Concentration −4.0 Molar) was −84%, the “Percent Growth” value (HCT-116; HCT-116, Log10 Concentration −5.0 Molar) was 2% and the “Percent Growth” value (HCT-116; HCT-116, Log10 Concentration −6.0 Molar) was 10%. The “Percent Growth” value (HCT-116; HCT-116, Log10 Concentration −7.0 Molar) was 30%, the “Percent Growth” value (HCT-116; HCT-116, Log10 Concentration −8.0 Molar) was 68% and the GI50 (HCT-116; Homo sapiens, HCT-116) was 29.4 nM. For the same compound, the CC50 (HCT-116; Homo sapiens, HCT-116, read-out: LC50) was 60.6 µM, the TGI (BT-549; BT-549) was 1.73E−5 Molar and the “Percent Growth” value (BT-549; BT-549, Log10 Concentration −4.0 Molar) was −85%. For the same compound, the “Percent Growth” value (BT-549; BT-549, Log10 Concentration −5.0 Molar) was 28%, the “Percent Growth” value (BT-549; BT-549, Log10 Concentration −6.0 Molar) was 97% and the “Percent Growth” value (BT-549; BT-549, Log10 Concentration −7.0 Molar) was 116%. The “Percent Growth” value (BT-549; BT-549, Log10 Concentration −8.0 Molar) was 110%, the GI50 (BT-549; Homo sapiens, BT-549) was 4.82 µM and the CC50 (BT-549; Homo sapiens, BT-549, read-out: LC50) was 488 µM. For the same compound, the TGI (HCC-2998; HCC-2998) was 2.04E−5 Molar, the “Percent Growth” value (HCC-2998; HCC-2998, Log10 Concentration −4.0 Molar) was −97% and the “Percent Growth” value (HCC-2998; HCC-2998, Log10 Concentration −5.0 Molar) was 43%. For the same compound, the “Percent Growth” value (HCC-2998; HCC-2998, Log10 Concentration −6.0 Molar) was 62%, the “Percent Growth” value (HCC-2998; HCC-2998, Log10 Concentration −7.0 Molar) was 86% and the “Percent Growth” value (HCC-2998; HCC-2998, Log10 Concentration −8.0 Molar) was 85%. The GI50 (HCC-2998; Homo sapiens, HCC 2998) was 4.33 µM, the CC50 (HCC-2998; Homo sapiens, HCC 2998, read-out: LC50) was 46.2 µM and the TGI (HS 578T; HS 578T) was 2.75E−6 Molar. The “Percent Growth” value (HS 578T; HS 578T, Log10 Concentration −4.0 Molar) was −38%, the “Percent Growth” value (HS 578T; HS 578T, Log10 Concentration −5.0 Molar) was 30% and the “Percent Growth” value (HS 578T; HS 578T, Log10 Concentration −6.0 Molar) was 91%. For the same compound, the “Percent Growth” value (HS 578T; HS 578T, Log10 Concentration −7.0 Molar) was 98%, the “Percent Growth” value (HS 578T; HS 578T, Log10 Concentration −8.0 Molar) was 105% and the GI50 (HS 578T; Homo sapiens, Hs-578T) was 4.68 µM. For the same compound, the CC50 (HS 578T; Homo sapiens, Hs-578T, read-out: LC50) was over 100 µM, the GI50 (MDA-MB-435; Homo sapiens, MDA-MB-435) was 1930 nM and the CC50 (MDA-MB-435; Homo sapiens, MDA-MB-435, read-out: LC50) was over 100 µM. The TGI (MDA-MB-435; MDA-MB-435) was 5.47E−5 Molar, the “Percent Growth” value (MDA-MB-435; MDA-MB-435, Log10 Concentration −4.0 Molar) was −29% and the “Percent Growth” value (MDA-MB-435; MDA-MB-435, Log10 Concentration −5.0 Molar) was 81%. The “Percent Growth” value (MDA-MB-435; MDA-MB-435, Log10 Concentration −6.0 Molar) was 96%, the “Percent Growth” value (MDA-MB-435; MDA-MB-435, Log10 Concentration −7.0 Molar) was 100% and the “Percent Growth” value (MDA-MB-435; MDA-MB-435, Log10 Concentration −8.0 Molar) was 102%. For the same compound, the TGI (HOP-62; HOP-62) was 1.93E−5 Molar, the “Percent Growth” value (HOP-62; HOP-62, Log10 Concentration −4.0 Molar) was −37% and the “Percent Growth” value (HOP-62; HOP-62, Log10 Concentration −5.0 Molar) was 15%. For the same compound, the “Percent Growth” value (HOP-62; HOP-62, Log10 Concentration −6.0 Molar) was 35%, the “Percent Growth” value (HOP-62; HOP-62, Log10 Concentration −7.0 Molar) was 87% and the “Percent Growth” value (HOP-62; HOP-62, Log10 Concentration −8.0 Molar) was 91%. The GI50 (HOP-62; Homo sapiens, HOP-62) was 350 nM, the CC50 (HOP-62; Homo sapiens, HOP-62, read-out: LC50) was over 100 µM and the GI50 (NCI-H23; Homo sapiens, NCI-H23) was 2900 nM. The CC50 (NCI-H23; Homo sapiens, NCI-H23, read-out: LC50) was 71.1 µM, the TGI (NCI-H23; NCI-H23) was 2.10E−5 Molar and the “Percent Growth” value (NCI-H23; NCI-H23, Log10 Concentration −4.0 Molar) was −54%. For the same compound, the “Percent Growth” value (NCI-H23; NCI-H23, Log10 Concentration −5.0 Molar) was 31%, the “Percent Growth” value (NCI-H23; NCI-H23, Log10 Concentration −6.0 Molar) was 57% and the “Percent Growth” value (NCI-H23; NCI-H23, Log10 Concentration −7.0 Molar) was 82%. The “Percent Growth” value (NCI-H23; NCI-H23, Log10 Concentration −8.0 Molar) was 94%, the GI50 (NCI-H226; Homo sapiens, NCI-H226) was under 10 nM and the CC50 (NCI-H226; Homo sapiens, NCI-H226, read-out: LC50) was 501 nM. The TGI (NCI-H226; NCI-H226) was 4.46E−8 Molar, the “Percent Growth” value (NCI-H226; NCI-H226, Log10 Concentration −4.0 Molar) was −65% and the “Percent Growth” value (NCI-H226; NCI-H226, Log10 Concentration −5.0 Molar) was −59%. The “Percent Growth” value (NCI-H226; NCI-H226, Log10 Concentration −6.0 Molar) was −62%, the “Percent Growth” value (NCI-H226; NCI-H226, Log10 Concentration −7.0 Molar) was −22% and the “Percent Growth” value (NCI-H226; NCI-H226, Log10 Concentration −8.0 Molar) was 40%.

Source: US8883841B2, “Oncogenic ras-specific cytotoxic compound and methods of use thereof” (The Board of Regents of the University of Texas System, priority 2005, dated 2014)
